≈ marks a conversion by molar mass, not a printed value. Like-named read-outs stand apart in the source and are kept apart here.
What was measured:
[1] = system: MRSA HPC 432; assay: Antibacterial activity (MIC), clinical isolates; assay type: cell-based, Methicillin-resistant Staphylococcus aureus; conditions: Staphylococcus aureus
Procedure: (§1) Antibacterial activities (minimum inhibitory concentration: MIC) were determined according to the standard method of the Japan Society of Chemotherapy [Chemotherapy, Vol. 29, p.76 (1981)] by using type strains and strains isolated from patients with infectious disease (including clinical isolates and atypical acid-fast bacteria), and applying 10^6/ml of colony forming bacteria. Linezolid was used as the reference compound [a compound described in Journal of Medicinal Chemistry, Vol. 39, p.673 (1996), hereinafter referred to as "reference compound"].

[2] = system: MRSA HPC 1336; assay: Antibacterial activity (MIC), clinical isolates; assay type: cell-based, Methicillin-resistant Staphylococcus aureus; conditions: Staphylococcus aureus
Procedure: as §1

[3] = system: S.aureus Smith HPC023; assay: Antibacterial activity (MIC), type strains; assay type: cell-based; conditions: Staphylococcus aureus
Procedure: as §1

[4] = system: S.aureus MS353 HPC017; assay: Antibacterial activity (MIC), type strains; assay type: cell-based; conditions: Staphylococcus aureus, MS353HPC017
Procedure: as §1

[5] = system: B.subtilis ATCC 6633 HPR022; assay: Antibacterial activity (MIC), type strains; assay type: cell-based; conditions: Bacillus subtilis, ATCC6633; type strain B.subtilis ATCC 6633 HPR022; 10^6/ml of colony forming bacteria
Procedure: as §1

[6] = system: M.intracellulare 20067; assay: Antibacterial activity (MIC), atypical acid-fast bacteria; assay type: cell-based; conditions: Mycobacterium intracellulare, 10^6/ml of colony forming bacteria
Procedure: as §1

[7] = system: M.intracellulare 20073; assay: as above; assay type: cell-based; conditions: Mycobacterium intracellulare, 10^6/ml of colony forming bacteria
Procedure: as §1

[8] = system: M.avium 20092; assay: as above; assay type: cell-based; conditions: Mycobacterium avium, 10^6/ml of colony forming bacteria
Procedure: as §1

[9] = system: M.avium 20096; assay: as above; assay type: cell-based; conditions: Mycobacterium avium, 10^6/ml of colony forming bacteria
Procedure: as §1

[10] = system: E.faecium HPC 1322; assay: Antibacterial activity (MIC), clinical isolates; assay type: cell-based; conditions: Enterococcus faecium, HPC1322
Procedure: as §1

[11] = system: S.epidermidis HPC 1728; assay: Antibacterial activity (MIC), clinical isolates; assay type: cell-based; conditions: Staphylococcus epidermidis, HPC1728
Procedure: as §1

[12] = system: E.faecalis HPC 1321; assay: Antibacterial activity (MIC), clinical isolates; assay type: cell-based; conditions: Enterococcus faecalis, HPC1321
Procedure: as §1

[13] = clinical isolate MRSA HPC 432, 10^6/ml of colony forming bacteria, read-out: MIC
[14] = clinical isolate MRSA HPC 1336, 10^6/ml of colony forming bacteria, read-out: MIC
[15] = type strain S.aureus Smith HPC023, 10^6/ml of colony forming bacteria, read-out: MIC
[16] = type strain S.aureus MS353 HPC017, 10^6/ml of colony forming bacteria, read-out: MIC
[17] = clinical isolate E.faecium HPC 1322, 10^6/ml of colony forming bacteria, read-out: MIC
[18] = clinical isolate S.epidermidis HPC 1728, 10^6/ml of colony forming bacteria, read-out: MIC
[19] = clinical isolate E.faecalis HPC 1321, 10^6/ml of colony forming bacteria, read-out: MIC

| MIC [1, 13] [µg/mL] | MIC [2, 14] [µg/mL] | MIC [3, 15] [µg/mL] | MIC [4, 16] [µg/mL] | MIC [5] [µg/mL] | MIC [6] [µg/mL] | MIC [7] [µg/mL] | MIC [8] [µg/mL] | MIC [9] [µg/mL] | MIC [10, 17] [µg/mL] | MIC [11, 18] [µg/mL] | MIC [12, 19] [µg/mL] | Structure (SMILES) | MIC ([1]; MRSA) [µg/mL] | MIC ([2]; MRSA) [µg/mL] | MIC [3] [µg/mL] | MIC [4] [µg/mL] | MIC [10] [µg/mL] | MIC [11] [µg/mL] | MIC [12] [µg/mL] |
| --- | --- | --- | --- | --- | --- | --- | --- | --- | --- | --- | --- | --- | --- | --- | --- | --- | --- | --- | --- |
| 0.78 (≈ 2.02 µM) | 0.78 (≈ 2.02 µM) | 1.56 (≈ 4.05 µM) | 0.78 (≈ 2.02 µM) | 0.39 (≈ 1.01 µM) | 0.39 (≈ 1.01 µM) | 0.39 (≈ 1.01 µM) | 0.39 (≈ 1.01 µM) | 0.39 (≈ 1.01 µM) | 0.78 (≈ 2.02 µM) | 0.78 (≈ 2.02 µM) | 0.78 (≈ 2.02 µM) | COC(=S)NC[C@H]1CN(c2ccc(N3CCSCC3)c(F)c2)C(=O)O1 [Example 1, O-Methyl (S)-N-[3-[3-fluoro-4-(thiomorpholin-4-yl)phenyl]-2-oxooxazolidin-5-yl]methylthiocarbamate] |  |  |  |  |  |  |  |
| 0.78 (≈ 1.94 µM) | 0.78 (≈ 1.94 µM) | 0.78 (≈ 1.94 µM) | 0.78 (≈ 1.94 µM) | 0.39 (≈ 0.971 µM) | 6.25 (≈ 15.6 µM) | 6.25 (≈ 15.6 µM) | 3.13 (≈ 7.8 µM) | 3.13 (≈ 7.8 µM) | 0.39 (≈ 0.971 µM) | 0.78 (≈ 1.94 µM) | 0.39 (≈ 0.971 µM) | COC(=S)NC[C@H]1CN(c2ccc(N3CC[S+]([O-])CC3)c(F)c2)C(=O)O1 [Example 2] |  |  |  |  |  |  |  |
| 0.78 (≈ 1.87 µM) | 0.78 (≈ 1.87 µM) | 0.78 (≈ 1.87 µM) | 0.78 (≈ 1.87 µM) | 0.39 (≈ 0.934 µM) | 3.13 (≈ 7.5 µM) | 3.13 (≈ 7.5 µM) | 3.13 (≈ 7.5 µM) | 3.13 (≈ 7.5 µM) | 0.39 (≈ 0.934 µM) | 0.39 (≈ 0.934 µM) | 0.39 (≈ 0.934 µM) | COC(=S)NC[C@H]1CN(c2ccc(N3CCS(=O)(=O)CC3)c(F)c2)C(=O)O1 [Example 3] |  |  |  |  |  |  |  |
| 0.39 (≈ 1.1 µM) | 0.39 (≈ 1.1 µM) | 0.39 (≈ 1.1 µM) | 0.39 (≈ 1.1 µM) | 0.39 (≈ 1.1 µM) | 1.56 (≈ 4.41 µM) | 0.78 (≈ 2.21 µM) | 1.56 (≈ 4.41 µM) | 1.56 (≈ 4.41 µM) | 0.39 (≈ 1.1 µM) | 0.39 (≈ 1.1 µM) | 0.39 (≈ 1.1 µM) | COC(=S)NC[C@H]1CN(c2ccc(N3CCCC3)c(F)c2)C(=O)O1 [Example 4] |  |  |  |  |  |  |  |

| Structure (SMILES) | MIC [1, 13] [µg/mL] | MIC [2, 14] [µg/mL] | MIC [3, 15] [µg/mL] | MIC [4, 16] [µg/mL] | MIC [5] [µg/mL] | MIC [6] [µg/mL] | MIC [7] [µg/mL] | MIC [8] [µg/mL] | MIC [9] [µg/mL] | MIC [10, 17] [µg/mL] | MIC [11, 18] [µg/mL] | MIC [12, 19] [µg/mL] | MIC ([1]; MRSA) [µg/mL] | MIC ([2]; MRSA) [µg/mL] | MIC [3] [µg/mL] | MIC [4] [µg/mL] | MIC [10] [µg/mL] | MIC [11] [µg/mL] | MIC [12] [µg/mL] |
| --- | --- | --- | --- | --- | --- | --- | --- | --- | --- | --- | --- | --- | --- | --- | --- | --- | --- | --- | --- |
| CC(=O)NC[C@H]1CN(c2ccc(N3CCOCC3)c(F)c2)C(=O)O1 [Reference compound, Linezolid, reference compound] |  |  |  |  | 0.78 (≈ 2.31 µM) | 12.5 (≈ 37.1 µM) | 6.25 (≈ 18.5 µM) | 25 (≈ 74.1 µM) | 50 (≈ 148 µM) |  |  |  | 3.13 (≈ 9.28 µM) | 3.13 (≈ 9.28 µM) | 3.13 (≈ 9.28 µM) | 3.13 (≈ 9.28 µM) | 1.56 (≈ 4.62 µM) | 3.13 (≈ 9.28 µM) | 1.56 (≈ 4.62 µM) |
